The subject of the assay is BDF1 mice, intracerebral L1210 leukemia, survival T/C. In words: NCI In Vivo Anticancer Drug Screen. Data for tumor model L1210 Leukemia (intracerebral) in B6D2F1 (BDF1) mice. The conditions noted are these: endpoint: mean survival time, higher = longer survival. In a few lines:
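Readout is the T/C ratio: survival of compound-treated animals over that of vehicle-treated controls, in mice bearing transplantable tumour.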

“And” between values parts separate entries of the source, which are not always exact repeats. Equal entries are not always repeated. Toxic doses and inconclusive results are not listed.

Consider `O=C1NC2(CCCCC2)C(=O)N1CCN(CCCl)CCCl`, for which the T/C was 101 % of control (dose: 0.78 mg/kg/injection, schedule: Q01DX009 (ip), vehicle: saline); 89 % of control (dose: 1.56 mg/kg/injection, schedule: Q01DX009 (ip), vehicle: saline); 95 % of control (dose: 3.12 mg/kg/injection, schedule: Q01DX009 (ip), vehicle: saline); 102 % of control (dose: 6.25 mg/kg/injection, schedule: Q01DX009 (ip), vehicle: saline); 91 % of control (dose: 12.5 mg/kg/injection, schedule: Q01DX009 (ip), vehicle: saline).
As for `Cc1[nH]c(=O)[nH]c(=O)c1N(CCF)CCCl`, the T/C (dose: 3.5 mg/kg/injection, schedule: Q01DX009 (ip), vehicle: Klucel (hydroxypropylcellulose) (HPC)) is 97 % of control; the T/C (dose: 7.0 mg/kg/injection, schedule: Q01DX009 (ip), vehicle: Klucel (hydroxypropylcellulose) (HPC)) is 88 % of control; the T/C (dose: 14.0 mg/kg/injection, schedule: Q01DX009 (ip), vehicle: Klucel (hydroxypropylcellulose) (HPC)) is 111 % of control; the T/C (dose: 28.0 mg/kg/injection, schedule: Q01DX009 (ip), vehicle: Klucel (hydroxypropylcellulose) (HPC)) was 94 % of control.
In the case of `N#Cc1ccc(NC(=O)N(CCCl)N=O)cc1`, the T/C runs as follows: (dose: 9.37 mg/kg/injection, schedule: Q01DX001 (ip), vehicle: carboxymethylcellulose (CMC)) 95 % of control; (dose: 18.75 mg/kg/injection, schedule: Q01DX001 (ip), vehicle: carboxymethylcellulose (CMC)) 91 % of control; (dose: 37.5 mg/kg/injection, schedule: Q01DX001 (ip), vehicle: carboxymethylcellulose (CMC)) 104 % of control; (dose: 75.0 mg/kg/injection, schedule: Q01DX001 (ip), vehicle: carboxymethylcellulose (CMC)) 102 % of control; (dose: 150.0 mg/kg/injection, schedule: Q01DX001 (ip), vehicle: carboxymethylcellulose (CMC)) 90 % of control.
For the compound `Nc1n[nH]c(N)n1`, the T/C (dose: 100.0 mg/kg/injection, schedule: Q03HX024 (ip), vehicle: saline) was 104 % of control and 97 % of control and 100 % of control; the T/C (dose: 150.0 mg/kg/injection, schedule: Q03HX024 (ip), vehicle: saline) was 102 % of control and 104 % of control and 99 % of control; the T/C (dose: 225.0 mg/kg/injection, schedule: Q01DX Z (ip), vehicle: saline) is 104 % of control; the T/C (dose: 225.0 mg/kg/injection, schedule: Q03HX024 (ip), vehicle: saline) is 102 % of control and 108 % of control and 110 % of control; the T/C (dose: 335.0 mg/kg/injection, schedule: Q03HX024 (ip), vehicle: saline) is 109 % of control and 119 % of control and 121 % of control; the T/C (dose: 375.0 mg/kg/injection, schedule: Q01DX Z (ip), vehicle: saline) was 108 % of control. The T/C reads like this: (dose: 500.0 mg/kg/injection, schedule: Q03HX024 (ip), vehicle: saline) 109 % of control and 122 % of control; (dose: 750.0 mg/kg/injection, schedule: Q01DX Z (ip), vehicle: saline) 98 % of control.
`O=NN(CCCl)C(=O)NC(Cc1ccccc1)C(=O)O` (configuration not stated): the T/C is 119 % of control (dose: 18.0 mg/kg/injection, schedule: Q01DX001 (ip), vehicle: gum acacia); 119 % of control (dose: 28.0 mg/kg/injection, schedule: Q01DX001 (ip), vehicle: gum acacia); 117 % of control (dose: 42.0 mg/kg/injection, schedule: Q01DX001 (ip), vehicle: gum acacia); 120 % of control (dose: 63.0 mg/kg/injection, schedule: Q01DX001 (ip), vehicle: gum acacia); 103 % of control (dose: 112.0 mg/kg/injection, schedule: Q01DX001 (ip), vehicle: gum acacia).
`C=CCNC(=O)NCC=C`: the T/C reads like this: (dose: 25.0 mg/kg/injection, schedule: Q01DX009 (ip), vehicle: saline) 101 % of control; (dose: 50.0 mg/kg/injection, schedule: Q01DX009 (ip), vehicle: saline) 103 % of control; (dose: 100.0 mg/kg/injection, schedule: Q01DX009 (ip), vehicle: saline) 97 % of control; (dose: 200.0 mg/kg/injection, schedule: Q01DX009 (ip), vehicle: saline) 105 % of control.
On to `CCOC(=O)c1ccc(NC(=O)N(CCCl)N=O)cc1`, for which the T/C was 108 % of control (dose: 4.0 mg/kg/injection, schedule: Q01DX001 (ip), vehicle: carboxymethylcellulose (CMC)); 107 % of control (dose: 6.0 mg/kg/injection, schedule: Q01DX001 (ip), vehicle: carboxymethylcellulose (CMC)); 108 % of control (dose: 9.0 mg/kg/injection, schedule: Q01DX001 (ip), vehicle: carboxymethylcellulose (CMC)); 113 % of control (dose: 13.5 mg/kg/injection, schedule: Q01DX001 (ip), vehicle: carboxymethylcellulose (CMC)).
`C[C@H]1CN1C1=CC(=O)C(N2C[C@@H]2C)=CC1=O`: the T/C (dose: 8.0 mg/kg/injection, schedule: Q01DX009 (ip), vehicle: saline) is 90 % of control.
On to `O=NN(CCCl)C(=O)NC1CCSc2ccccc21` (configuration not stated), for which the T/C is, setting by setting: (dose: 26.0 mg/kg/injection, schedule: Q01DX001 (ip), vehicle: other) 164 % of control; (dose: 27.0 mg/kg/injection, schedule: Q01DX001 (ip), vehicle: other) 206 % of control; (dose: 40.0 mg/kg/injection, schedule: Q01DX001 (ip), vehicle: other) 201 % of control and 261 % of control; (dose: 60.0 mg/kg/injection, schedule: Q01DX001 (ip), vehicle: other) 263 % of control and 288 % of control; (dose: 90.0 mg/kg/injection, schedule: Q01DX001 (ip), vehicle: other) 161 % of control and 222 % of control; (dose: 135.0 mg/kg/injection, schedule: Q01DX001 (ip), vehicle: other) 230 % of control.

Source of the values: PubChem BioAssay AID252 (DTP/NCI, 2004).
